Results reported in the supplement of paper PMC10307832.

Legend:
Experiment in all cases: relative viability (nuclei count vs DMSO), 5 days (fraction); higher = more cells survive
[1] = compound: CC1(C)CNc2cc(NC(=O)c3cccnc3NCc3ccncc3)ccc21 [Motesanib] + CC(C)C[C@H](NC(=O)[C@H](Cc1ccccc1)NC(=O)c1cnccn1)B(O)O [Bortezomib] (partner 0.002 µM)
In short: (§1)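 Lung cancer cell lines, seeded in 1536-well plates, were treated the following day by pin tool with a single drug or with five library-drug doses (not always all listed) in √10 steps on top of a fixed anchor-drug dose. Cells were fixed and nuclei stained in one step after 5 days, and nuclei were counted. Relative viability is the nuclei count for treated wells divided by that for vehicle wells, reported as medians of duplicate plates.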

[2] = compound: CC1(C)CNc2cc(NC(=O)c3cccnc3NCc3ccncc3)ccc21 [Motesanib] + CCNC(=O)c1noc(-c2cc(C(C)C)c(O)cc2O)c1-c1ccc(CN2CCOCC2)cc1 [Luminespib] (partner 0.01 µM)
In short: as §1

[3] = compound: C[C@@]1(C(=O)Nc2ccc(F)nc2)CCCN1c1nc(Nc2cc(C3CC3)n[nH]2)c2cccn2n1 + Cc1cc(Nc2cc(N3CCN(C)CC3)nc(Sc3ccc(NC(=O)C4CC4)cc3)n2)n[nH]1 [Tozasertib] (partner 0.1 µM)
In short: as §1

[4] = compound: CC1(C)CNc2cc(NC(=O)c3cccnc3NCc3ccncc3)ccc21 [Motesanib] + Nc1nc2[nH]cc(CCc3ccc(C(=O)N[C@@H](CCC(=O)O)C(=O)O)cc3)c2c(=O)[nH]1 [Pemetrexed] (partner 0.2 µM)
In short: as §1

## UMC-11
[1]; first compound 0.01 µM
  relative viability: 0.648
[1]; first compound 0.03162 µM
  relative viability: 0.767
[1]; first compound 0.1 µM
  relative viability: 0.64
[1]; first compound 0.3162 µM
  relative viability: 0.683
[1]; first compound 1 µM
  relative viability: 0.951
[2]; first compound 0.01 µM
  relative viability: 0.987
[2]; first compound 0.03162 µM
  relative viability: 1.07
[2]; first compound 0.1 µM
  relative viability: 0.927
[2]; first compound 0.3162 µM
  relative viability: 1.12
[2]; first compound 1 µM
  relative viability: 1.17
[3]; first compound 0.04 µM
  relative viability: 0.2
[3]; first compound 0.1265 µM
  relative viability: 0.203
[3]; first compound 0.4 µM
  relative viability: 0.204
[3]; first compound 1.265 µM
  relative viability: 0.184
[4]; first compound 0.01 µM
  relative viability: 0.834
[4]; first compound 0.03162 µM
  relative viability: 0.696
[4]; first compound 0.1 µM
  relative viability: 0.575
[4]; first compound 0.3162 µM
  relative viability: 0.608
[4]; first compound 1 µM
  relative viability: 0.556
